This is an account of results in patent US20060234390A1, “Process for determining target function and identifying drug leads” (priority 2002, published 2006).

Assay [1] concerns the target T1, P38 MAP kinase (Homo sapiens, UniProt Q16539).
T1 construct: purchased Sigma
As to the kind of experiment: HPLC based Chemical Array binding assay (protein-bound vs free compounds, UV and mass spectrum). Conditions: for identity of the compound extracted from the mixture and released from the protein (mass spectrum): 5 uM P38 MAP kinase + 5 uM mixture of Quinine and 86002. Here is the method:
(§1) Drug-like chemical compounds representing a collection of drug-like chemical scaffolds (Sigma-Aldrich, ICN, Calbiochem) were weighed and mixed to a final concentration of 20 uM each in 50 mM ammonium acetate pH 7, 10% methanol. 1 uM to 20 uM tubulin or P38 MAP kinase (Sigma) were dispensed into HPLC low volume sample cuvettes (Waters) and mixed with 0.5 uM to 20 uM compounds. After mixing and a 15 minute 37° C. incubation, the cuvettes were placed on ice and injected into the HPLC (Waters 2690) using an autoinjector (Waters) onto a 150 mm×2.1 mm ID Pinkerton GFF II column (Regis Technologies) for dual size exclusion and phase separation with a 50 mM ammonium acetate, 10% methanol running buffer.
(§2) We optimized the column dimensions and the choice of resin to maximize the separation of the compounds bound to the protein targets from the unbound compounds. Resins which elute protein in the void volume and small column diameters and lengths which minimize the void volume were used. Such columns minimize the amount of dilution of the protein sample and minimize the time required for each assay, thereby minimizing the amount of bound compound that dissociates from the protein (as governed by the Koff rate). […] A number of HPLC columns, including the Regis 150 mm×2.1 mm GFF II column, a 1.0 mm×100 mm YMC Diol column, a 2.1 mm×150 mm Phenomonex Polyhydroxymethacrylate (Polysep) column, and a Jordi 2.1×150 mm Divinyl Benzene column, were tested. Similarly, other running buffers were tested in which the salt and methanol concentration were varied, and the ratio of protein target to small compounds in the binding reaction was varied from 1000:1 to 1:1000. Resins representative of different classes were tested for their ability to separate the protein fraction from the drug-like small molecule compounds, and to minimize the cycle time for all of the compounds to elute from the column. These characteristics of the columns are determined by surface properties and limitations on flow rates due to resins collapsing under backpressure. […] In applications where a longer cycle time (e.g., over 10 minutes per run) is acceptable, any of the above columns or a series of the above columns may be used.
(§3) For shorter cycle times, other columns may be used.

Another assay has as its system tubulin. Described as above. As to conditions: tubulin 0, 5 and 20 uM; 10 compound mixture, 0.5 uM each; GFF II column. Here is the method:
as §1, §2, §3

Assay [2] addresses T1, P38 MAP kinase. Conditions: stated as a known property of the ligand; cited from earlier work.
The mark [3] stands for this setting: P38 0, 2.5, 5 and 10 uM, 86002 and quinine 5 uM each, Diol column.

“Also recorded” adds a separate entry of the source.

T1 sequence (Q16539 whole entry): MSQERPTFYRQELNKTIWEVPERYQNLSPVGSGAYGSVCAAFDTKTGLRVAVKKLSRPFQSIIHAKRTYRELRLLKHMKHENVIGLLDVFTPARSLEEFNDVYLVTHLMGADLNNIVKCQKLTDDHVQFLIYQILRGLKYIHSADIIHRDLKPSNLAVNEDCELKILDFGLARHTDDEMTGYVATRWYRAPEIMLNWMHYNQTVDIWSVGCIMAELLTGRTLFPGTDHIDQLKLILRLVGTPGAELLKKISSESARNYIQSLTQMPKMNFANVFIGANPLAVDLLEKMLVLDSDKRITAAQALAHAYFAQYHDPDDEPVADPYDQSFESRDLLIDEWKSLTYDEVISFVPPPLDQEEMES

With `Fc1ccc(-c2nc3n(c2-c2ccncc2)CCS3)cc1` [SKB86002], the “mass spectrum of the collected protein fraction compared with the standard” value at P38 MAP kinase [1] (5 uM P38 MAP kinase + 5 uM 86002, Diol column) is on record as “corresponded to the 86002 standard”. On P38 MAP kinase [1], the “identity of the compound extracted from the mixture and released from the protein (mass spectrum)” value is on record as “identified as 86002”. Further, the “reduction of the free compound UV peak with increasing P38 MAP kinase” value at P38 MAP kinase [1] (setting [3]) was “concentration dependant reduction”; on P38 MAP kinase [1] (P38 0, 3.5 and 5 uM, 10 compound mixture, 0.5 uM each, GFF II column), “concentration dependent reduction”. Also, the “level of the characteristic peak in the mass spectrum of the protein fraction” value on P38 MAP kinase [1] (P38 2 uM, 100 compound mixture, 20 uM each, GFF II column) is “binds and extracts; also recorded: at a level far higher than other peaks”. Further, at P38 MAP kinase [1] (P38, 10 compound mixture, 0.5 uM each, GFF II column), the “level of the characteristic peaks in the mass spectrum of the protein fraction” value is listed as “at a level far higher than other peaks”. Besides, the “reduction of the free compound UV peak with increasing tubulin” value with tubulin is given as “negligible reduction”. Further, the “affinity for the P38 MAP kinase protein target” value at P38 MAP kinase [2] is “micromolar affinity”.
As for `C=C[C@H]1CN2CC[C@H]1C[C@H]2[C@H](O)c1ccnc2ccc(OC)cc12.Cl` [quinine, quinine monohydrochloride], the “identity of the compound extracted from the mixture and released from the protein (mass spectrum)” value on P38 MAP kinase [1] is recorded as “not quinine”. Moreover, the “reduction of the free compound UV peak with increasing P38 MAP kinase” value at P38 MAP kinase [1] (setting [3]) is given as “negligible reduction”.
